Experimental data: patent publication US10807992B2, “Single enantiomer antiparasitic compounds” (priority 2017, dated 2020)

Tests used:
Rhipicephalus sanguineus = test: In vitro contact activity against adult ticks (coated vial), R. sanguineus; conditions: for mortality at 0.006 µM: Trial 3, dose 0.006 μM; for mortality at 0.024 µM: Trial 3, dose 0.024 μM; for mortality at 0.098 µM: Trial 3, dose 0.098 μM; for mortality at 0.39 µM: Trial 3, dose 0.39 μM; for mortality at 1.56 µM: Trial 3, dose 1.56 μM; for mortality at 6.25 µM: Trial 3, dose 6.25 μM; for mortality at 25 µM: Trial 3, dose 25 μM; for mortality at 100 µM: Trial 3, dose 100 μM
Method: Rhipicephalus sanguineus, Dermacentor variabilis, Amblyomma americanum, (Ecto Services, Inc., Henderson, N.C.) and Ixodes scapularis (Oklahoma State University, Stillwater, Okla.) aged between 2-4 weeks post molt were held in an environmental chamber at 24° C., 80% humidity with 12-hour light/dark cycles.
For tick assays, vial caps were pre-drilled with a single hole in the center of each cap to allow air exchange. A filter paper (Whatman Grade 540 2.1 cm) was placed in the lid of each vial. An aliquot from each compound stock was added to an acetone/triton solution to achieve the desired top doses for the study. Serial dilutions were conducted from the top dose (i.e. 100 ppm) to achieve the desired titration range for EC50 and EC90 determination. For R. sanguineus, D. variabilis, and A. americanum, the final DMSO concentration in each test vial was 0.5%. For I. scapularis, compounds were solubilized directly in an acetone/triton solution due to I. scapularis' sensitivity to DMSO. A 459 μL aliquot of each compound formulation was transferred to a vial containing a Whatman Grade 540 2.1 cm filter paper. Vials were immediately placed on an unheated roller unit to allow for an even coating of the vial walls. After vials were coated, 41 μL of each compound formulation was added to the filter paper embedded in each vial cap. Each cap was allowed to dry. The vials were loosely capped and allowed to dry for a minimum of four hours in a chemical fume hood.
Compounds tested were: the C1 racemate, C1 (R) enantiomer, and the C1 (S) enantiomer. For Trial 3, the C1 (R) enantiomer and the C1 (S) enantiomer were further chiral purified to achieve >99% purity.
Ten adult ticks were added to each vial and held at 24° C., 80% humidity with 12-hour light/dark cycles. Adult ticks were assessed for percent mortality at various time points between 2 hours and 48 hours post infestation. Ticks were stimulated on a heated roller unit and evaluated. Ticks showing no movement, or very slow and uncoordinated movement were noted as dead.

[1] = test system: Ctenocephalides felis (flea), Ixodidae (tick), and Aedes aegypti (mosquito); test: Bio-profiling of C1 racemate and enantiomers, overall conclusions of contact and ingestion assays
From the text: 1-[6-[5-(3,5-dichloro-4-fluoro-phenyl)-5-(trifluoromethyl)-4H-isothiazol-3-yl]spiro[1H-isobenzofuran-3,3′-azetidine]-1′-yl]-3,3,3-trifluoro-propan-1-one (referred to herein as C1 racemate) is an isothiazoline compound consisting of two isomers: (R)-1-[6-[5-(3,5-dichloro-4-fluoro-phenyl)-5-(trifluoromethyl)-4H-isothiazol-3-yl]spiro[1H-isobenzofuran-3,3′-azetidine]-1′-yl]-3,3,3-trifluoro-propan-1-one (referred herein as C1 (R) enantiomer) and (S)-1-[6-[5-(3,5-dichloro-4-fluoro-phenyl)-5-(trifluoromethyl)-4H-isothiazol-3-yl]spiro[1H-isobenzofuran-3,3′-azetidine]-1′-yl]-3,3,3-trifluoro-propan-1-one (referred to herein as C1 (S) enantiomer). The racemic compound and the two enantiomers were tested against adult stages of Ctenocephalides felis (flea) Ixodidae (tick), and Aedes aegypti (mosquito). The compounds were solubilized in DMSO or an acetone/triton solution and dose response curves were generated for the individual compounds.
For evaluation of contact activity, coated-substrate (flea) and coated-vial (tick and mosquito) assay procedures were used. For evaluation of flea ingestion activity, an artificial feeding assay procedure was used. Insecticidal activity was evaluated at various time-points for each assay. Dose response curves were generated in duplicate on three independent test occasions (Trial 1-Trial 3) and EC50 and EC90 values were calculated.
Therefore, mortality correction was not performed in the assays. Calculation of EC50 and EC90 values was performed using XLfit. Both EC50 and EC90 values were calculated using the average of the two replicates for each Trial.
The C1 (R) enantiomer, C1 (S) enantiomer, and the C1 racemate were successfully evaluated against flea, tick, and mosquito contact and ingestion in vitro screening assays.

SMILES: O=C(CC(F)(F)F)N1CC2(C1)OCc1cc(C3=NS[C@@](c4cc(Cl)c(F)c(Cl)c4)(C(F)(F)F)C3)ccc12 [C1 (S) enantiomer, (S)-1-[6-[5-(3,5-dichloro-4-fluoro-phenyl)-5-(trifluoromethyl)-4H-isothiazol-3-yl]spiro[1H-isobenzofuran-3,3′-azetidine]-1′-yl]-3,3,3-trifluoro-propan-1-one]
- mortality at 0.006 µM (Rhipicephalus sanguineus; 2 h, Rep1): 0%
- mortality at 0.006 µM (Rhipicephalus sanguineus; 2 h, Rep2): 0%
- mortality at 0.024 µM (Rhipicephalus sanguineus; 2 h, Rep1): 0%
- mortality at 0.024 µM (Rhipicephalus sanguineus; 2 h, Rep2): 0%
- mortality at 0.098 µM (Rhipicephalus sanguineus; 2 h, Rep1): 0%
- mortality at 0.098 µM (Rhipicephalus sanguineus; 2 h, Rep2): 0%
- mortality at 0.39 µM (Rhipicephalus sanguineus; 2 h, Rep1): 0%
- mortality at 0.39 µM (Rhipicephalus sanguineus; 2 h, Rep2): 0%
- mortality at 1.56 µM (Rhipicephalus sanguineus; 2 h, Rep1): 0%
- mortality at 1.56 µM (Rhipicephalus sanguineus; 2 h, Rep2): 0%
- mortality at 6.25 µM (Rhipicephalus sanguineus; 2 h, Rep1): 0%
- mortality at 6.25 µM (Rhipicephalus sanguineus; 2 h, Rep2): 0%
- mortality at 25 µM (Rhipicephalus sanguineus; 2 h, Rep1): 0%
- mortality at 25 µM (Rhipicephalus sanguineus; 2 h, Rep2): 0%
- mortality at 100 µM (Rhipicephalus sanguineus; 2 h, Rep1): 50%
- mortality at 100 µM (Rhipicephalus sanguineus; 2 h, Rep2): 10%
- mortality at 0.006 µM (Rhipicephalus sanguineus; 6 h, Rep1): 0%
- mortality at 0.006 µM (Rhipicephalus sanguineus; 6 h, Rep2): 0%
- mortality at 0.024 µM (Rhipicephalus sanguineus; 6 h, Rep1): 0%
- mortality at 0.024 µM (Rhipicephalus sanguineus; 6 h, Rep2): 0%
- mortality at 0.098 µM (Rhipicephalus sanguineus; 6 h, Rep1): 0%
- mortality at 0.098 µM (Rhipicephalus sanguineus; 6 h, Rep2): 0%
- mortality at 0.39 µM (Rhipicephalus sanguineus; 6 h, Rep1): 0%
- mortality at 0.39 µM (Rhipicephalus sanguineus; 6 h, Rep2): 0%
- mortality at 1.56 µM (Rhipicephalus sanguineus; 6 h, Rep1): 10%
- mortality at 1.56 µM (Rhipicephalus sanguineus; 6 h, Rep2): 0%
- mortality at 6.25 µM (Rhipicephalus sanguineus; 6 h, Rep1): 80%
- mortality at 6.25 µM (Rhipicephalus sanguineus; 6 h, Rep2): 60%
- mortality at 25 µM (Rhipicephalus sanguineus; 6 h, Rep1): 90%
- mortality at 25 µM (Rhipicephalus sanguineus; 6 h, Rep2): 100%
- mortality at 100 µM (Rhipicephalus sanguineus; 6 h, Rep1): 100%
- mortality at 100 µM (Rhipicephalus sanguineus; 6 h, Rep2): 100%
- mortality at 0.006 µM (Rhipicephalus sanguineus; 12 h, Rep1): 0%
- mortality at 0.006 µM (Rhipicephalus sanguineus; 12 h, Rep2): 0%
- mortality at 0.024 µM (Rhipicephalus sanguineus; 12 h, Rep1): 0%
- mortality at 0.024 µM (Rhipicephalus sanguineus; 12 h, Rep2): 0%
- mortality at 0.098 µM (Rhipicephalus sanguineus; 12 h, Rep1): 0%
- mortality at 0.098 µM (Rhipicephalus sanguineus; 12 h, Rep2): 0%
- mortality at 0.39 µM (Rhipicephalus sanguineus; 12 h, Rep1): 10%
- mortality at 0.39 µM (Rhipicephalus sanguineus; 12 h, Rep2): 10%
- mortality at 1.56 µM (Rhipicephalus sanguineus; 12 h, Rep1): 40%
- mortality at 1.56 µM (Rhipicephalus sanguineus; 12 h, Rep2): 50%
- mortality at 6.25 µM (Rhipicephalus sanguineus; 12 h, Rep1): 100%
- mortality at 6.25 µM (Rhipicephalus sanguineus; 12 h, Rep2): 100%
- mortality at 25 µM (Rhipicephalus sanguineus; 12 h, Rep1): 100%
- mortality at 25 µM (Rhipicephalus sanguineus; 12 h, Rep2): 100%
- mortality at 100 µM (Rhipicephalus sanguineus; 12 h, Rep1): 100%
- mortality at 100 µM (Rhipicephalus sanguineus; 12 h, Rep2): 100%
- potency against ticks ([1]; adult ticks, contact assays): excellent potency against ticks
- which enantiomer carries the biological activity of the C1 racemate ([1]; flea, tick and mosquito contact and ingestion assays, Trials 1-3): primarily be associated with the C1 (S) enantiomer
